How the values were obtained:
[1] = test system: ticks (Haemaphysalis longicornis); experiment: Pesticidal activity on ticks in filter paper test; settings: 48 h, 100 mg/m^2, non-blood-fed young ticks, 2 days
Experimental: Pesticidal Activity on Ticks (Haemaphysalis longicornis) in Filter Paper Test
Each (5 mg) of the present hydrazide compounds (1) and (2) was dissolved in acetone (10 mL), and this acetone solution (1 mL) was uniformly applied onto one side of a filter paper (TOYO No. 2; 5×10 cm; the surface area of the filter paper was 50 cm^2, and thus the amount of the present hydrazide compound applied was 100 mg/m^2). After drying, said filter paper was folded, and the both sides of the paper were clipped to form a bag. Into this bag, test ticks (Haemaphysalis longicornis, non-blood-fed young ticks, 10 ticks/group) were added, and the opening was clipped to seal the bag. Two (2) days later, the number of dead ticks was examined and the mortality was calculated by the following formula:
Mortality (%)=100×(number of dead ticks/number of ticks tested)

[2] = test system: ticks (Haemaphysalis longicornis); experiment: Dropping application against dog-infested ticks; format: in vivo
Experimental: Dropping Application Against Dog-Infested Ticks (Haemaphysalis longicornis)
(§1) Each (0.375 or 1.5 g) of the present hydrazide compound (1) and Comparative compound (52) was dissolved in diethylene glycol monoethyl ether (6.0 g) to prepare a test solution. Said test solution was directly dropped on the skin of the neck and back of the dog while pushing aside fur thereon at a rate of 0.1 ml per 1 kg of the dog's body weight (dose amount: 5 or 20 mg/kg). This is referred to as a test group. On the other hand, diethylene glycol monoethyl ether alone was applied dropwise to a placebo group.
Twenty eight (28) days later, 100 test ticks were deposited on each dog. Two (2) days after the deposit, the number of living ticks, which were infesting the dogs, was examined. When the examination was completed, all infested ticks were removed from the dogs. The infestation rate and control rate were calculated by the following formulae: […]
Method of calculating infestation rate and control rate at 30 days after the application:
Infestation rate (%) at X days after application=(number of living ticks at X days/number of ticks deposited)×100
(§2) Control rate (%) at X days after application=(infestation rate of placebo group at X days−infestation rate of test group at X days)/infestation rate of placebo group at X days×100
(§3) In addition, if an infestation rate of a test group is higher than a placebo group, then the control rate is deemed to be 0%.

[3] = test system: ticks (Haemaphysalis longicornis); experiment: Oral administration against dog-infested ticks; format: in vivo; settings: dog (beagle), oral gelatin capsules
Experimental: Oral Administration Against Dog-Infested Ticks (Haemaphysalis longicornis)
The previous day before oral administration, 100 test ticks (Haemaphysalis longicornis, young ticks) were deposited on a dog (beagle). Before the oral administration, infested ticks were counted.
Each of the present hydrazide compound (1) and Comparative compound (52) was filled into gelatin capsules, and forcibly and orally administered to a dog in a dose amount of 5 mg or 20 mg per 1 kg of the dog's body weight. This is referred to as a test group. On the other hand, gelatin capsules alone was orally administered to a placebo group.
Two (2) days after the administration, the number of living ticks, which were infesting the dogs, was examined.
When the examination was completed, all infested ticks were removed from the dogs. The infestation rate and control rate were calculated by the following formulae: […]
Method of calculating infestation rate and control rate at the initial stage (2 days) after the administration:
Infestation rate (%) at X days after administration=(number of living ticks at X days/number of living ticks before administration)×100
Control rate (%) at X days after administration (infestation rate of test group before administration−infestation rate of test group at X days)/infestation rate of test group before administration×100
as §3

[4] = test system: cat fleas (Ctenocephalides felis); experiment: Dropping application against cat-infested cat fleas; format: in vivo
Experimental: Dropping Application Against Cat-Infested Cat Fleas (Ctenocephalides felis)
The previous day before dropping application, 50 test fleas (cat flea adults) were deposited on a cat. Before the dropping application, infested fleas were counted.
as §1, with “Each (0.75” for “Each (0.375”, “the cat” for “the dog”, “thereon on” for “thereon”, “the cat's” for “the dog's”, “amount: 10” for “amount: 5”
Two (2) days after the application, the number of living fleas, which were infesting the cats, was examined. When the examination was completed, all infested fleas were removed from the cats.
(§4) Twenty eight (28) days later, 50 test fleas were re-deposited on each cat. Two (2) days after the re-deposit, the number of living fleas, which were infesting the cats, was examined. When the examination was completed, all infested fleas were removed from the cats. The infestation rate and control rate were calculated by the following formulae: […]
(i) Method of calculating infestation rate and control rate at the initial stage (2 days) after the application:
Infestation rate (%) at X days after application=(number of living fleas at X days/number of living fleas before application)×100
Control rate (%) at X days after application=(infestation rate of test group before application−infestation rate of test group at X days)/infestation rate of test group before application×100
(ii) Method of calculating infestation rate and control rate at 30 days after the application:
Infestation rate (%) at X days after application=(number of living fleas at X days/number of fleas deposited)×100
as §2, §3

[5] = test system: cat fleas (Ctenocephalides felis); experiment: Oral administration against cat-infested cat fleas; format: in vivo; settings: oral with cat food, dose 20 mg/kg
Experimental: Oral Administration Against Cat-Infested Cat Fleas (Ctenocephalides felis)
Each of the present hydrazide compound (1) and Comparative compound (52) was mixed with a cat food, and orally administered to a cat in a dose amount of 20 mg per 1 kg of the cat's body weight. This is referred to as a test group. On the other hand, the cat food alone was fed to a placebo group.
as §4, with “Forty two (42)” for “Twenty eight (28)”, “deposited” for “re-deposited”, “deposit,” for “re-deposit,”
Method of calculating infestation rate and control rate at 44 days after the administration:
Infestation rate (%) at X days after administration=(number of living fleas at X days/number of fleas deposited)×100
Control rate (%) at X days after administration=(infestation rate of placebo group at X days−infestation rate of test group at X days)/infestation rate of placebo group at X days×100
as §3

[6] = test system: ticks (Haemaphysalis longicornis); experiment: Dropping application against mouse-infested ticks; format: in vivo; settings: 0.1% w/v solution 200 μL dropwise to whole body surface, 2 days after application
Experimental: Dropping Application Against Mouse-Infested Ticks (Haemaphysalis longicornis)
The previous day before dropping application, 30 test ticks (Haemaphysalis longicornis, young ticks) were deposited on a mouse. Before the dropping application, uninfested ticks were removed.
The present hydrazide compound (1) (5 mg) was dissolved in a mixture (5 mL) of propylene carbonate and diethylene glycol monoethyl ether in equal amounts to prepare a 0.1% w/v solution. Said solution (200 μL) was applied dropwise to the whole body surface of a mouse with a pipette. To a control group, the mixture (200 μL) alone was applied. Each application was repeated 3 times per group.
Two (2) days after the application, the number of dead ticks was examined and the mortality was calculated by the following formula:
Mortality (%)=100×(number of dead ticks/infested ticks before dropping application)

[7] = test system: ticks (Haemaphysalis longicornis); experiment: Oral administration against mouse-infested ticks; format: in vivo; settings: 20 mg in 10 mL test solution at 10 mL per 1 kg body weight, 2 days after administration
Experimental: Oral Administration Against Mouse-Infested Ticks (Haemaphysalis longicornis)
The previous day before oral administration, 30 test ticks (Haemaphysalis longicornis, young ticks) were deposited on a mouse. Before the oral administration, uninfested ticks were removed.
(§5) The present hydrazide compound (1) (20 mg) was dissolved in dimethylformamide (680 mg), and thereto a corn oil was added to prepare a test solution (10 mL). Said test solution was orally administered to the mouse at the rate of 10 mL per 1 kg of the body weight of the mouse with a gastric sonde. To a control group, a 7% dimethylformamide/corn oil solution alone was orally administered. Each administration was repeated 3 times per group.
Two (2) days after the administration, the number of dead ticks was examined and the mortality was calculated by the following formula:
Mortality (%)=100×(number of dead ticks/infested ticks before oral administration)

[8] = test system: cat fleas (Ctenocephalides felis); experiment: Oral administration against mouse-infested cat fleas; format: in vivo; settings: 20 mg in 10 mL test solution at 10 mL per 1 kg body weight, fleas deposited after administration, 2 days later
Experimental: Oral Administration Against Mouse-Infested Cat Fleas (Ctenocephalides Felis)
as §5, with “at a” for “at the”
After the oral administration, 20 cat fleas were deposited on each mouse. Two (2) days later, the number of cat fleas was examined and the mortality was calculated by the following formula:
Mortality (%)=100×(number of dead cat fleas/number of cat fleas tested)

CN(NC(=O)C1CC1)c1cc(C2=NOC(c3cc(Cl)cc(Cl)c3)(C(F)(F)F)C2)ccc1Cl (stereo not drawn) [(2), N′-methyl-N′-{2-chloro-5-[5-(3,5-dichlorophenyl)-5-trifluoromethyl-4,5-dihydroisoxazol-3-yl]phenyl}cyclopropanecarbohydrazide]
mortality at 100 mg/m2 [1]: ≥ 90%

CC(=O)NNc1cc(C2=NOC(c3cc(Cl)cc(Cl)c3)(C(F)(F)F)C2)ccc1Cl (stereo not drawn) [Comparative compound (52), N′-{5-[5-(3,5-dichlorophenyl)-5-trifluoromethyl-4,5-dihydroisoxazol-3-yl]-2-chlorophenyl}acetohydrazide, reference compound]
Tick control rates (%) at 30 days after the application ([2]; dose 5 mg/kg): 29%
Tick control rates (%) at 2 days after the application ([3]; dose 5 mg/kg): 26%
Flea control rates (%) at 2 days after the application ([4]; dose 10 mg/kg): 58%
Flea control rates (%) at 30 days after the application ([4]; dose 10 mg/kg): 74%
Flea control rates (%) at 44 days after the administration [5]: 68%

O=C(NNc1cc(C2=NOC(c3cc(Cl)cc(Cl)c3)(C(F)(F)F)C2)ccc1Cl)C1CC1 (stereo not drawn) [Compound (1), N′-{2-chloro-5-[5-(3,5-dichlorophenyl)-5-trifluoromethyl-4,5-dihydroisoxazol-3-yl]phenyl}cyclopropanecarbohydrazide]
Mortality [6]: ≥ 70%
Mortality [7]: ≥ 90%
Mortality [8]: ≥ 90%
Tick control rates (%) at 30 days after the application ([2]; dose 5 mg/kg): 100%
Tick control rates (%) at 30 days after the application ([2]; dose 20 mg/kg): 100%
Tick control rates (%) at 2 days after the application ([3]; dose 5 mg/kg): 100%
Tick control rates (%) at 2 days after the application ([3]; dose 20 mg/kg): 100%
Flea control rates (%) at 2 days after the application ([4]; dose 10 mg/kg): 92%
Flea control rates (%) at 30 days after the application ([4]; dose 10 mg/kg): 84%
Flea control rates (%) at 2 days after the application ([4]; dose 20 mg/kg): 96%
Flea control rates (%) at 30 days after the application ([4]; dose 20 mg/kg): 94%
Flea control rates (%) at 44 days after the administration [5]: 94%

Source: patent US20120029040A1, “ANIMAL ECTOPARASITE-CONTROLLING AGENT” (priority 2010, published 2012)
